Experiments:
ROCK2 = target: T1, ROCK2 (Homo sapiens, UniProt O75116); assay: ROCK2 inhibition assay (ADP-Glo kinase assay, called ROCK2 binding activity); type: biochemical; conditions: 20 μM ATP, 1 hour pre-incubation, read-out: ROCK 2 (IC50 category)
T1 construct: N-terminal 6His-tagged ROCK2 catalytic domain 11-552; 6His (N); purchased Dundee University, UK; host or cells: baculovirus expression system
Experimental: ROCK2 Binding Activity: Assay for ROCK2 inhibition was performed using the protein construct N-terminal 6His-tagged ROCK2 catalytic domain 11-552 (Dundee University, UK). Protein was purified from a baculovirus expression system. Long S6 peptide ([…]) was used as substrate. Kinase reactions were carried out in 15 μl volume in a 96-well plate (black, half area) using 1.25 nM constitutively active ROCK2 kinase, 100 μM long S6 peptide, 20 μM ATP and test compound in DMSO (or DMSO only for controls). The final concentration of DMSO was 1%. Assay buffer was 50 mM HEPES pH 7.5 supplemented with 0.2 mM EDTA, 10 mM magnesium acetate, 0.01% Tween-20, 1 mM DTT and 0.01% BSA. Test compounds were pre-incubated with ROCK2 kinase for 1 hour before addition of ATP and long S6 peptide. After incubation for a further 1 hour, the amount of ADP produced was measured using ADP-Glo Kinase Assay (Promega) as per manufacturer's instructions. The luminescence was measured on a PHERAstar FS (BMG Labtech). The concentration of test compound required to inhibit ADP production by 50% (the IC50) was calculated using a four-parameter logistic function with software by Dotmatics. […] The category “+” refers to compounds with a ROCK2 or ROCK1 IC50 value of >10 μM. The category “++” refers to compounds with a ROCK2 or ROCK1 IC50 value of 10 to 3 μM. The category “+++” refers to compounds with a ROCK1 or ROCK2 IC50 value of 3 to 0.3 μM. The category “++++” refers to compounds with a ROCK1 or ROCK2 IC50 value of <0.3 μM.

ROCK1 = ROCK1 (Homo sapiens, UniProt Q13464); assay: ROCK1 inhibition assay (ROCK1 binding activity, as determined by the assay described for ROCK2); type: biochemical; conditions: read-out: ROCK 1 (IC50 category)
Experimental: Assay for ROCK2 inhibition was performed using the protein construct N-terminal 6His-tagged ROCK2 catalytic domain 11-552 (Dundee University, UK). Protein was purified from a baculovirus expression system. Long S6 peptide ([…]) was used as substrate. Kinase reactions were carried out in 15 μl volume in a 96-well plate (black, half area) using 1.25 nM constitutively active ROCK2 kinase, 100 μM long S6 peptide, 20 μM ATP and test compound in DMSO (or DMSO only for controls). The final concentration of DMSO was 1%. Assay buffer was 50 mM HEPES pH 7.5 supplemented with 0.2 mM EDTA, 10 mM magnesium acetate, 0.01% Tween-20, 1 mM DTT and 0.01% BSA. Test compounds were pre-incubated with ROCK2 kinase for 1 hour before addition of ATP and long S6 peptide. After incubation for a further 1 hour, the amount of ADP produced was measured using ADP-Glo Kinase Assay (Promega) as per manufacturer's instructions. The luminescence was measured on a PHERAstar FS (BMG Labtech). The concentration of test compound required to inhibit ADP production by 50% (the IC50) was calculated using a four-parameter logistic function with software by Dotmatics. […] The category “+” refers to compounds with a ROCK2 or ROCK1 IC50 value of >10 μM. The category “++” refers to compounds with a ROCK2 or ROCK1 IC50 value of 10 to 3 μM. The category “+++” refers to compounds with a ROCK1 or ROCK2 IC50 value of 3 to 0.3 μM. The category “++++” refers to compounds with a ROCK1 or ROCK2 IC50 value of <0.3 μM.

T1 sequence (O75116 11-552): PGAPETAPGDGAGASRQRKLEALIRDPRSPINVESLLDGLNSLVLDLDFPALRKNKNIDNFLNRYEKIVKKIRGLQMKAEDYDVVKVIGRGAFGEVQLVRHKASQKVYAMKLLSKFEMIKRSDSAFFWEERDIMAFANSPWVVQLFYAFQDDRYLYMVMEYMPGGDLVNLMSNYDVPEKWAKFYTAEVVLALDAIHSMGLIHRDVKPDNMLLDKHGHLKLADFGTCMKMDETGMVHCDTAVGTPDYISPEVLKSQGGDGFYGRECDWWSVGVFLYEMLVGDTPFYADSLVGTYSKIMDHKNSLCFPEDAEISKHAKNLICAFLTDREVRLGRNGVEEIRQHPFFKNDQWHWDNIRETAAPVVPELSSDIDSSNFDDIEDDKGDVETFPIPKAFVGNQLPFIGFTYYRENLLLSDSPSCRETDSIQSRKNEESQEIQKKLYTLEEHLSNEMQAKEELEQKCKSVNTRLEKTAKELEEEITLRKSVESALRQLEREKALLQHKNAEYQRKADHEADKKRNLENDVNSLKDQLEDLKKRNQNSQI
ROCK1, sequence (Q13464 whole entry, the tested form may be a part): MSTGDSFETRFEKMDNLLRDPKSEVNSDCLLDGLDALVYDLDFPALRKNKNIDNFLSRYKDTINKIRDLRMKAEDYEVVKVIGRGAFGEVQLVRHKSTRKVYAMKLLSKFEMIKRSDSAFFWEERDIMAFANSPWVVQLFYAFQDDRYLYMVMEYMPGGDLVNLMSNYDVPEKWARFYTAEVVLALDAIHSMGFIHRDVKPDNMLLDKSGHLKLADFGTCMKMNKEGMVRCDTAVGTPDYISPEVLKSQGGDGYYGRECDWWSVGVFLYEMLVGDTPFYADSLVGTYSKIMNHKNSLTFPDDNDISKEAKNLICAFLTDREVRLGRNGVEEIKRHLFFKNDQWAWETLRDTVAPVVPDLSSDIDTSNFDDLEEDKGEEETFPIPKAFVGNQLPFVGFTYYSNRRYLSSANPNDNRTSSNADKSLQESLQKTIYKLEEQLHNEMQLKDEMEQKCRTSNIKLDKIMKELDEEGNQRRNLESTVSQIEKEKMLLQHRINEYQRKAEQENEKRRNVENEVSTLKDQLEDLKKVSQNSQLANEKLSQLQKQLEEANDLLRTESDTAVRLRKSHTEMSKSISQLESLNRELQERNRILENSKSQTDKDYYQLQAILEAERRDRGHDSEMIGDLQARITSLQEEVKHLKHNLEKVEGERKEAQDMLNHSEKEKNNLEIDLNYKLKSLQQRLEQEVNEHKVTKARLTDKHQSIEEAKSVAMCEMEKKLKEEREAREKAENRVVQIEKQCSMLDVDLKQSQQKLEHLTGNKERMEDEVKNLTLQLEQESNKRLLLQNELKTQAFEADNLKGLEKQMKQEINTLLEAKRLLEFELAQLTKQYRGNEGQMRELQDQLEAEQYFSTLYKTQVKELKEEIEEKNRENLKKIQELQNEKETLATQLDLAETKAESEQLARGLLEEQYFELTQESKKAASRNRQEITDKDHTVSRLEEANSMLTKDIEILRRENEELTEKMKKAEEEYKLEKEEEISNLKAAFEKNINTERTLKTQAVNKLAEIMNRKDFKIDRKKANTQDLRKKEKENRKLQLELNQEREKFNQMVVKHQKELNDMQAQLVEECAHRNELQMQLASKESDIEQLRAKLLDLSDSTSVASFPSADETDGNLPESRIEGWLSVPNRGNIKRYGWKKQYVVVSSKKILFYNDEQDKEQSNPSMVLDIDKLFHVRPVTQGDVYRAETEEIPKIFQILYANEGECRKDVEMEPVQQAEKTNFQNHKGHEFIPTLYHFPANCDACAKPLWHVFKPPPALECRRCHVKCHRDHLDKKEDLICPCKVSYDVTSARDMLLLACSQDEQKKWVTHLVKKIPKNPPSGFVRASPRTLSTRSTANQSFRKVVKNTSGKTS

Row | SMILES | IC50 (ROCK2) [µM] | IC50 (ROCK1) [µM]
1 | CCn1nc(-c2ccc(-c3ccc(C)c(C)n3)c(C)c2)nc1Nc1cc2c(cc1C)C(=O)NC2C (centres unmarked) [Example 100] | < 0.3 | > 10
2 | CCn1nc(-c2ccc(-c3cc(C)cc(C)n3)c(C)c2)nc1Nc1cc2c(cc1C)C(=O)NC2C (centres unmarked) [Example 101] | < 0.3 | 3 to 10
3 | CCn1nc(-c2ccc(-c3ccc(C)nc3)cc2)nc1Nc1cc2c(cc1C)C(=O)NC2 [Example 102] | < 0.3 | 0.3 to 3
4 | CCn1nc(-c2ccc(-c3ccc(C4CC4)cn3)c(C)c2)nc1Nc1cc2c(cc1C)C(=O)NC2C (centres unmarked) [Example 103] | < 0.3 | 3 to 10
5 | CCn1nc(-c2ccc(-c3ccc(C)cn3)cc2)nc1Nc1cc2c(cc1C)C(=O)NC2C (centres unmarked) [Example 104] | < 0.3 | 3 to 10
6 | CCn1nc(-c2cnc(-c3ccc(C4CC4)cc3)c(C)c2)nc1Nc1cc2c(cc1C)C(=O)NC2C (centres unmarked) [Example 105] | < 0.3 | 3 to 10
7 | CCn1nc(-c2cc(C)c(-c3ccc(C4CC4)nc3)cc2F)nc1Nc1ccc2c(c1)C(C)NC2=O (centres unmarked) [Example 106] | < 0.3 | 3 to 10
8 | CCn1nc(-c2ccc(-c3nc(C)ccc3C)c(C)c2)nc1Nc1cc2c(cc1C)C(=O)NC2C (centres unmarked) [Example 107] | 3 to 10 | > 10
9 | CCn1nc(-c2ccc(-c3cn(C)c(C4CC4)n3)c(F)c2)nc1Nc1ccc2c(c1)C(C)NC2=O (centres unmarked) [Example 108] | < 0.3 | 3 to 10
10 | CCn1nc(-c2cc(C)c(-c3ccc(C4CC4)cn3)cc2F)nc1Nc1cc2c(cc1C)C(=O)NC2C (centres unmarked) [Example 109] | < 0.3 | 3 to 10
11 | CCn1nc(-c2ccc(-c3ccc(C)nc3)nc2)nc1Nc1ccc2c(c1)C(C)NC2=O (centres unmarked) [Example 110] | < 0.3 | > 10
12 | CCn1nc(-c2cc(C)c(-c3ccc(C4CC4)nc3)cc2C)nc1Nc1ccc2c(c1)C(C)NC2=O (centres unmarked) [Example 111] | < 0.3 | > 10
13 | CCn1nc(-c2ccc(-c3ccc(C4CC4)cn3)c(C)c2)nc1Nc1ccc2c(c1)C(C)NC2=O (centres unmarked) [Example 112] | < 0.3 | > 10
14 | CCn1nc(-c2cc(C)c(-c3cn(C)c(C4CC4)n3)cc2F)nc1Nc1ccc2c(c1)C(C)NC2=O (centres unmarked) [Example 113] | < 0.3 | 3 to 10
15 | CCn1nc(-c2cc(C)c(-c3ccc(C4CC4)cn3)cc2C)nc1Nc1cc2c(cc1C)C(=O)NC2C (centres unmarked) [Example 114] | < 0.3 | > 10
16 | CCn1nc(-c2ccc(-c3ccc(C)nc3)c(C(=O)OC)c2)nc1Nc1cc2c(cc1C)C(=O)NC2C (centres unmarked) [Example 115] | < 0.3 | > 10
17 | CCn1nc(-c2ccc(C3=CCN(C)CC3)cc2)nc1Nc1cc2c(cc1C)C(=O)NC2C (centres unmarked) [Example 116] | 3 to 10 | > 10
18 | CCn1nc(-c2ccc(C3=CCN(C)CC3)cc2C)nc1Nc1cc2c(cc1C)C(=O)NC2C (centres unmarked) [Example 117] | 0.3 to 3 | > 10
19 | CCn1nc(-c2ccc(C3=CCN(CC(F)(F)F)C3)c(C)c2)nc1Nc1cc2c(cc1C)C(=O)NC2C (centres unmarked) [Example 118] | < 0.3 | > 10
20 | CCn1nc(-c2ccc(-c3ccc(C)nc3)c(C(C)(C)O)c2)nc1Nc1cc2c(cc1C)C(=O)NC2C (centres unmarked) [Example 119] | 0.3 to 3 | > 10
21 | CCn1nc(-c2cc(C)c(-c3ccc(C)cn3)cc2F)nc1Nc1cc2c(cc1C)C(=O)NC2C (centres unmarked) [Example 120] | < 0.3 | > 10
22 | CCn1nc(-c2cnc(-c3ccc(C4CC4)nc3)c(C)c2)nc1Nc1cc2c(cc1C)C(=O)NC2C (centres unmarked) [Example 121] | < 0.3 | > 10
23 | CCn1nc(-c2ccc(-c3cn(C)c(C4CC4)n3)cc2C)nc1Nc1cc2c(cc1C)C(=O)NC2C (centres unmarked) [Example 122] | < 0.3 | 3 to 10

Row | SMILES | IC50 (ROCK2) [µM] | IC50 (ROCK1) [µM]
24 | CCn1nc(-c2ccc(C3CCN(CC(F)(F)F)CC3)cc2)nc1Nc1cc2c(cc1C)C(=O)NC2C (centres unmarked) [Example 123] | 0.3 to 3 | > 10
25 | CCn1nc(-c2ccc(-c3ccn(CC(F)(F)F)c3)cc2)nc1Nc1cc2c(cc1C)C(=O)NC2C (centres unmarked) [Example 124] | < 0.3 | 3 to 10
26 | CCn1nc(-c2ccc(-c3ccc(C)nc3)c(C(C)=O)c2)nc1Nc1cc2c(cc1C)C(=O)NC2C (centres unmarked) [Example 125] | < 0.3 | > 10
27 | CCn1nc(-c2ccc(-n3cnc(C4CC4)c3)cc2C)nc1Nc1cc2c(cc1C)C(=O)NC2C (centres unmarked) [Example 126] | < 0.3 | 3 to 10
28 | CCn1nc(-c2ccc(C3CCN(C(C)C(F)(F)F)CC3)cc2)nc1Nc1cc2c(cc1C)C(=O)NC2C (centres unmarked) [Example 127] | 0.3 to 3 | 0.3 to 3
29 | CCn1nc(-c2ccc(C3CCN(C)CC3)cc2C)nc1Nc1cc2c(cc1C)C(=O)NC2C (centres unmarked) [Example 128] | > 10 | > 10
30 | CCn1nc(-c2ccc(-c3ccn(C)c3)c(C)c2)nc1Nc1cc2c(cc1C)C(=O)NC2C (centres unmarked) [Example 129] | < 0.3 | 3 to 10
31 | CCn1nc(-c2ccc(-c3ccc(C4CC4)nc3)cc2)nc1Nc1cc2c(cc1F)C(=O)NC2C (centres unmarked) [Example 130] | < 0.3 | 3 to 10
32 | CCn1nc(-c2ccc(C3CCN(CC(F)(F)F)CC3)cc2C)nc1Nc1cc2c(cc1C)C(=O)NC2C (centres unmarked) [Example 131] | < 0.3 | > 10
33 | CCn1nc(-c2ccc(-c3ccc(C)nc3)cc2F)nc1Nc1cc2c(cc1C)C(=O)NC2C (centres unmarked) [Example 132] | < 0.3 | 3 to 10
34 | CCn1nc(-c2cc(C)c(-c3ccc(C)cn3)cc2C)nc1Nc1ccc2c(c1)C(C)NC2=O (centres unmarked) [Example 133] | < 0.3 | > 10
35 | CCn1nc(-c2cc(C)c(-c3ccc(C4CC4)cn3)cc2F)nc1Nc1ccc2c(c1)C(C)NC2=O (centres unmarked) [Example 134] | < 0.3 | > 10
36 | CCn1nc(-c2cc(C)c(-c3ccc(C4CC4)cn3)cc2C)nc1Nc1ccc2c(c1)C(C)NC2=O (centres unmarked) [Example 135] | < 0.3 | > 10
37 | CCn1nc(-c2ccc(-c3ccn(C)c3)cc2)nc1Nc1cc2c(cc1C)C(=O)NC2C (centres unmarked) [Example 136] | < 0.3 | 3 to 10
38 | CCn1nc(-c2ccc(-c3ccc(C4CC4)cn3)nc2)nc1Nc1cc2c(cc1C)C(=O)NC2C (centres unmarked) [Example 137] | < 0.3 | 0.3 to 3
39 | CCn1nc(-c2ccc(C3CCN(CC(F)(F)F)C3)c(C)c2)nc1Nc1cc2c(cc1C)C(=O)NC2C (centres unmarked) [Example 138] | < 0.3 | > 10
40 | CCn1nc(-c2ccc(-c3ccn(CC(F)(F)F)c3)c(C)c2)nc1Nc1cc2c(cc1C)C(=O)NC2C (centres unmarked) [Example 139] | < 0.3 | 0.3 to 3
41 | CCn1nc(-c2ccc(C3CCCN(C)C3)c(C)c2)nc1Nc1cc2c(cc1C)C(=O)NC2C (centres unmarked) [Example 140] | > 10 | > 10
42 | CCn1nc(-c2ccc(C3CCNCC3)c(C)c2)nc1Nc1cc2c(cc1C)C(=O)NC2C (centres unmarked) [Example 141] | 3 to 10 | > 10
43 | CCn1nc(-c2ccc(C3CCN(C)CC3)cc2)nc1Nc1cc2c(cc1C)C(=O)NC2C (centres unmarked) [Example 142] | > 10 | > 10
44 | CCn1nc(-c2ccc(C3CCCN(CC(F)(F)F)C3)cc2)nc1Nc1cc2c(cc1F)C(=O)NC2C (centres unmarked) [Example 143] | 0.3 to 3 | > 10
45 | CCn1nc(-c2ccc(C3CCN(C)CC3)c(C)c2)nc1Nc1cc2c(cc1C)C(=O)NC2C (centres unmarked) [Example 144] | > 10 | > 10
46 | CCn1nc(-c2ccc(C3CCC(C)NC3)c(C)c2)nc1Nc1cc2c(cc1C)C(=O)NC2C (centres unmarked) [Example 145, 5-[[2-ethyl-5-[3-methyl-4-(6-methyl-3-piperidyl)phenyl]-1,2,4-triazol-3-yl]amino]-3,6-dimethyl-isoindolin-1-one] | 3 to 10 | > 10

Source: patent US20250122173A1, “MODULATORS OF RHO-ASSOCIATED PROTEIN KINASE” (Redx Pharma Limited, priority 2022, published 2025)
